This is an account of results in patent US7470684B2, “Spiropiperidine derivatives as NK3 antagonists” (Hoffmann-La Roche Inc., priority 2007, dated 2008).

The first assay addresses T1, human NK3 receptor (Homo sapiens, UniProt P29371).
T1 construct: expressed in transfected cells; host or cells: HEK293 cells, transiently transfected; membranes
T1 sequence (P29371 1-465): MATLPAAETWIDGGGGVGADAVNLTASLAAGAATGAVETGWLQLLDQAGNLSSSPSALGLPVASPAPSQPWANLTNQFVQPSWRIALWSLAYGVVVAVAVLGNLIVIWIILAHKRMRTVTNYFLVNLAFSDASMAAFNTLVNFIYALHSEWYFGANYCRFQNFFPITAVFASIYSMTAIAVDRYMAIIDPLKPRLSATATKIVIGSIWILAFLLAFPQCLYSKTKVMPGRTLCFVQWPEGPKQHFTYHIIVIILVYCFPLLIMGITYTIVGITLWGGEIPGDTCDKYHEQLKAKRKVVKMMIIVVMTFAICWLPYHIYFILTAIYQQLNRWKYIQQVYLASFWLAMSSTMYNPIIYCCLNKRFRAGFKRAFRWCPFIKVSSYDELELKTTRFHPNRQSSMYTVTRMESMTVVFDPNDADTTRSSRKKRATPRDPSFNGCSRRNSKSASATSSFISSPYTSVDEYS
Kind of assay: [3H]SR142801 competition binding assay.
Details: not given
The method, then:
[^3H]SR142801 Competition Binding Assay
hNK3 receptor binding experiment were performed using [^3H]SR142801 (Catalog No. TRK1035, specific activity: 74.0 Ci/mmol, Amersham, GE Healthcare UK limited, Buckinghamshire, UK) and membrane isolated from HEK293 cells transiently expressing recombinant human NK3 receptor. After thawing, the membrane homogenates were centrifuged at 48,000×g for 10 min at 4° C., the pellets were resuspended in the 50 mM Tris-HCl, 4 mM MnCl2, 1 μM phosphoramidon, 0.1% BSA binding buffer at pH 7.4 to a final assay concentration of 5 μg protein/well. For inhibition experiments, membranes were incubated with [^3H]SR142801 at a concentration equal to KD value of radioligand and 10 concentrations of the inhibitory compound (0.0003-10 μM) (in a total reaction volume of 500 μl) for 75 min at room temperature (RT). At the end of the incubation, membranes were filtered onto unitfilter (96-well white microplate with bonded GF/C filter preincubated 1 h in 0.3% PEI+0.3% BSA, Packard BioScience, Meriden, Conn.) with a Filtermate 196 harvester (Packard BioScience) and washed 4 times with ice-cold 50 mM Tris-HCl, pH 7.4 buffer. Nonspecific binding was measured in the presence of 10 μM SB222200 for both radioligands. The radioactivity on the filter was counted (5 min) on a Packard Top-count microplate scintillation counter with quenching correction after addition of 45 μl of microscint 40 (Canberra Packard S.A., Zürich, Switzerland) and shaking for 1 h. Inhibition curves were fitted according to the Hill equation: y=100/(1+(x/IC50)^nH), where nH=slope factor using Excel-fit 4 software (Microsoft). IC50 values were derived from the inhibition curve and the affinity constant (Ki) values were calculated using the Cheng-Prussoff equation Ki=IC50/(1+[L]/KD) where [L] is the concentration of radioligand and KD is its dissociation constant at the receptor, derived from the saturation isotherm. All experiments were performed in duplicate and the mean±standard error (SEM) of the individual Ki values was calculated.
In turn, `CN1C(=O)OC2(CCN(CCC(C(=O)NC(c3ccc(Cl)cc3)c3nccn3C)c3ccc(Cl)c(Cl)c3)CC2)c2cc(F)ccc21` (stereo not shown) [Example 88, N-[(4-chlorophenyl)(1-methyl-1H-imidazol-2-yl)methyl]-2-(3,4-dichlorophenyl)-4-(6-fluoro-1-methyl-2-oxo-1,2-dihydro-1′H-spiro[3,1-benzoxazine-4,4′-piperidin]-1′-yl)butanamide] registered a Ki of 72.2 nM.
As to `CN(CCc1ccccc1)C(=O)C(CCN1CCC2(CC1)OC(=O)N(C)c1ccc(F)cc12)c1ccc(Cl)c(Cl)c1` (stereo not shown) [Example 90, 2-(3,4-dichlorophenyl)-4-(6-fluoro-1-methyl-2-oxo-1,2-dihydro-1′H-spiro[3,1-benzoxazine-4,4′-piperidin]-1′-yl)-N-metyl-N-(2-phenylethyl)butanamide], the Ki amounted to 8 nM.

Still in this assay, the particulars now being: hNK3 Ki, [3H]SR142801 displacement, membranes of HEK293 cells transiently expressing recombinant human NK3 receptor.
For `COc1ccc(CN(C)C(=O)C(CCN2CCC3(CC2)OC(=O)Nc2ccc(F)cc23)c2ccc(Cl)c(Cl)c2)cc1F` (stereo not shown) [Example 74, 2-(3,4-dichlorophenyl)-N-(3-fluoro-4-methoxybenzyl)-4-(6-fluoro-2-oxo-1,2-dihydro-1′H-spiro[3,1-benzoxazine-4,4′-piperidin]-1′-yl)-N-methylbutanamide], the Ki turned out to be 5.5 nM.
Regarding `COc1cc(CN(C)C(=O)C(CCN2CCC3(CC2)OC(=O)Nc2ccc(F)cc23)c2ccc(Cl)c(Cl)c2)ccc1OC(F)F` (stereo not shown) [Example 75, 2-(3,4-dichlorophenyl)-N-[4(difluoromethoxy)-3-methoxybenzyl]4-(6-fluoro-2-oxo-1,2-dihydro-1′H-spiro[3,1-benzoxazine-4,4′-piperidin]-1′-yl)-N-methylbutanamide], the Ki worked out at 7.7 nM.
On to `CN(Cc1cccc(F)c1)C(=O)C(CCN1CCC2(CC1)OC(=O)Nc1ccc(F)cc12)c1ccc(Cl)c(Cl)c1` (stereo not shown) [Example 76, 2-(3,4-dichlorophenyl)-N-(3-fluorobenzyl)-4-(6-fluoro-2-oxo-1,2-dihydro-1′H-spiro[3,1-benzoxazine-4,4′-piperidin]-1′-yl)-N-methylbutanamide], for which the Ki was 4.6 nM.
The same measure, in the same setting: then `Cc1ccc(CN(C)C(=O)C(CCN2CCC3(CC2)OC(=O)Nc2ccc(F)cc23)c2ccc(Cl)c(Cl)c2)cc1` (stereo not shown) [Example 77, 2-(3,4-dichlorophenyl)-4-(6-fluoro-2-oxo-1,2-dihydro-1′H-spiro[3,1-benzoxazine-4,4′-piperidin]-1′-yl)-N-methyl-N-(4-methylbenzyl)butanamide], with 4.6 nM; and `O=C1Nc2ccc(F)cc2C2(CCN(CCC(C(=O)NCc3cccc(OC(F)(F)F)c3)c3ccc(Cl)c(Cl)c3)CC2)O1` (stereo not shown) [Example 78, 2-(3,4-dichlorophenyl)-4-(6-fluoro-2-oxo-1,2-dihydro-1′H-spiro[3,1-benzoxazine-4,4′-piperidin]-1′-yl)-N-[(3-trifluoromethoxy)benzyl]butanamide], with 15.4 nM.
As for `CN(Cc1cccc(C(F)(F)F)c1)C(=O)C(CCN1CCC2(CC1)OC(=O)Nc1ccc(F)cc12)c1ccc(Cl)c(Cl)c1` (stereo not shown) [Example 79, 2-(3,4-dichlorophenyl)-4-(6-fluoro-2-oxo-1,2-dihydro-1′H-spiro[3,1-benzoxazine-4,4′-piperidin]-1′-yl)-N-methyl-N-[3-(trifluoromethyl)benzyl]butanamide], the Ki was 6.6 nM.
In the case of `CN(Cc1ccc(F)cc1)C(=O)C(CCN1CCC2(CC1)OC(=O)Nc1ccc(F)cc12)c1ccc(Cl)c(Cl)c1` (stereo not shown) [Example 80, 2-(3,4-dichlorophenyl)-N-(4-fluorobenzyl)-4-(6-fluoro-2-oxo-1,2-dihydro-1′H-spiro[3,1-benzoxazine-4,4′-piperidin]-1′-yl)-N-methylbutanamide], the Ki turned out to be 4.4 nM.
On to `O=C1Nc2ccc(F)cc2C2(CCN(CCC(C(=O)NCc3ccc(F)cc3)c3ccc(Cl)c(Cl)c3)CC2)O1` (stereo not shown) [Example 81, 2-(3,4-dichlorophenyl)-N-(4-fluorobenzyl)-4-(6-fluoro-2-oxo-1,2-dihydro-1′H-spiro[3,1-benzoxazine-4,4′-piperidin]-1′-yl)-butanamide], for which the Ki was 11.6 nM.
On to `COc1ccc(CNC(=O)C(CCN2CCC3(CC2)OC(=O)Nc2ccc(F)cc23)c2ccc(Cl)c(Cl)c2)cc1` (stereo not shown) [Example 82, 2-(3,4-dichlorophenyl)-4-(6-fluoro-2-oxo-1,2-dihydro-1′H-spiro[3,1-benzoxazine-4,4′-piperidin]-1′-yl)-N-(4-methoxybenzyl)butanamide], for which the Ki came out at 19.7 nM.
With `O=C1Nc2ccc(F)cc2C2(CCN(CCC(C(=O)NCc3cccc(C(F)(F)F)c3)c3ccc(Cl)c(Cl)c3)CC2)O1` (stereo not shown) [Example 83, 2-(3,4-dichlorophenyl)-4-(6-fluoro-2-oxo-1,2-dihydro-1′H-spiro[3,1-benzoxazine-4,4′-piperidin]-1′-yl)-N-[3-(trifluoromethyl)benzyl]butanamide], the Ki worked out at 12.9 nM.
As to `O=C1Nc2ccc(F)cc2C2(CCN(CCC(C(=O)NCc3ccc(-c4csnn4)cc3)c3ccc(Cl)c(Cl)c3)CC2)O1` (stereo not shown) [Example 84, 2-(3,4-dichlorophenyl)-4-(6-fluoro-2-oxo-1,2-dihydro-1′H-spiro[3,1-benzoxazine-4,4′-piperidin]-1′-yl)-N-[4-(1,2,3-thiadiazol-4-yl)benzyl]butanamide], the Ki was 11.6 nM.
On to `O=C1Nc2ccc(F)cc2C2(CCN(CCC(C(=O)NCc3ccc(OC(F)(F)F)cc3)c3ccc(Cl)c(Cl)c3)CC2)O1` (stereo not shown) [Example 85, 2-(3,4-dichlorophenyl)-4-(6-fluoro-2-oxo-1,2-dihydro-1′H-spiro[3,1-benzoxazine-4,4′-piperidin]-1′-yl)-N-[4-(trifluoromethoxy)benzyl]butanamide], for which the Ki was found to be 69.9 nM.
In the case of `N#Cc1ccc(CNC(=O)C(CCN2CCC3(CC2)OC(=O)Nc2ccc(F)cc23)c2ccc(Cl)c(Cl)c2)cc1` (stereo not shown) [Example 86, N-(4-cyanobenzyl)-2-(3,4-dichlorophenyl)-4-(6-fluoro-2-oxo-1,2-dihydro-1′H-spiro[3,1-benzoxazine-4,4′-piperidin]-1′-yl)butanamide], the Ki amounted to 12.1 nM.
On to `CN1C(=O)OC2(CCN(CCC(C(=O)NCc3ccc(Cl)cc3Cl)c3ccc(Cl)c(Cl)c3)CC2)c2cc(F)ccc21` (stereo not shown) [Example 87, N-(2,4-dichlorobenzyl)-2-(3,4-dichlorophenyl)-4-(6-fluoro-1-methyl-2-oxo-1,2-dihydro-1′H-spiro[3,1-benzoxazine-4,4′-piperidin]-1′-yl)butanamide], for which the Ki came to 2.1 nM.
Regarding `CN(Cc1ccccc1)C(=O)C(CCN1CCC2(CC1)OC(=O)N(C)c1ccc(F)cc12)c1ccc(Cl)c(Cl)c1` (stereo not shown) [Example 89, N-benzyl-2-(3,4-dichlorophenyl)-4-(6-fluoro-1-methyl-2-oxo-1,2-dihydro-1′H-spiro[3,1-benzoxazine-4,4′-piperidin]-1′-yl)-N-methyl-butanamide], the Ki was 0.8 nM.
Still for that read-out and setting: the value for `CN1C(=O)OC2(CCN(CCC(C(=O)NCc3ccccc3OC(F)(F)F)c3ccc(Cl)c(Cl)c3)CC2)c2cc(F)ccc21` (stereo not shown) [Example 91, 2-(3,4-dichlorophenyl)-4-(6-fluoro-1-methyl-2-oxo-1,2-dihydro-1′H-spiro[3,1-benzoxazine-4,4′-piperidin]-1′-yl)-N-[2-(trifluoromethoxy)benzyl]butanamide] was 6.5 nM.
Take `CN1C(=O)OC2(CCN(CCC(C(=O)NCc3cccc(OC(F)F)c3)c3ccc(Cl)c(Cl)c3)CC2)c2cc(F)ccc21` (stereo not shown) [Example 92, 2-(3,4-dichlorophenyl)-N-[3-(difluoromethoxy)benzyl]-4-(6-fluoro-1-methyl-2-oxo-1,2-dihydro-1′H-spiro[3,1-benzoxazine-4,4′-piperidin]-1′-yl)butanamide]: the Ki stood at 2.8 nM.

Broadly, the Ki is the dissociation constant of the complex between target and ligand, obtained from inhibition or displacement.
